{"source": "paper PMC8391421", "about": "“Identification of Novel Positive Allosteric Modulators of Neurotrophin Receptors for the Treatment of Cognitive Dysfunction” (Cells, 2021)", "tested_on": "extracellular neurotransmitter levels in ventral hippocampus", "test": "In vivo microdialysis of neurotransmitters in ventral hippocampus", "design": "species or system rat", "experimental": "The microdialysis experiments were conducted using Pronexus AB, Bromma, Sweden (ethical permit N24/14) on awake, freely moving Sprague Dawley rats (n = 6, 7–8 weeks old from Janvier Labs, Le Genest-Saint-Isle, France) as previously described. On the day of the microdialysis experiment, the rat was in its home cage and placed into a frame of a single-beam locomotor activity monitoring system. Locomotor activity of rats undergoing microdialysis sampling was recorded simultaneously in 5-min intervals. A microdialysis probe (Eicom A-I: 0.22 mm O.D., 4 mm membrane length with 50 kDa cut-off) was inserted into the guide cannula of the awake rat. The probe was connected with fluorinated ethylene propylene (FEP) tubing (0.1 mm I.D.) to the balancing arm of the CMA 120 system for freely moving animals (CMA/Microdialysis) equipped with a 2-channel swivel (Microbiotech/se AB, Stockholm, Sweden). […] Concentrations of acetylcholine (ACh) and glutamate (Glu) in the microdialysis samples were measured using ultra-high performance liquid chromatography tandem mass spectrometry (UHPLC-MS/MS), whereas the levels of the monoamines dopamine (DA), noradrenaline (NA), and […] (5-HT) in the microdialysates were measured using ion-exchange narrow bore column liquid chromatography with electrochemical detection as described elsewhere. […]"}
{"smiles": "Cc1cc(-n2c(=O)[nH]c(=O)n(C)c2=O)ccc1Oc1ccc(S(=O)(=O)C(F)(F)F)cc1", "note": "[ACD855, Toltrazuril-sulfone]", "values": [{"measurement": "increase in extracellular ACh levels in vHPC", "setting": "local infusion of 30 µM over four hours, freely moving rats, vs vehicle (aCSF)", "result": 40, "unit": "%"}, {"measurement": "levels of glutamate, noradrenaline, dopamine and 5-hydroxytryptamine", "setting": "local infusion of 30 µM, vHPC", "result": "not affected"}]}
